According to patent publication US20240166593A1, “LIPIDS SUITABLE FOR NUCLEIC ACID DELIVERY” (RAMOT AT TEL-AVIV UNIVERSITY LTD., priority 2021, published 2024):
“And” between values parts separate entries of the source, which are not always exact repeats. Identical values can stand only once.

How the values were obtained:
[1] = Physico-chemical characterization of LNPs made of different ionizable lipids (DLS, zeta potential); format: physicochemical
Description: Various LNPs comprising different ionizable lipid were prepared by using microfluidic micro mixture (Precision NanoSystems, Vancouver, BC) device. Briefly, one volume of lipid mixtures (ionizable lipid, DSPC, Cholesterol and DMG-PEG at 30:18:49.5:2.5 mole ratios) in ethanol and three volumes of mRNA containing acetate buffer solutions were mixed through the micromixer at a combined flow rate of 12 mL/min. The resultant mixture was dialyzed against PBS (pH 7.4) for 16 hours to remove ethanol.
The prepared LNPs comprising different ionizable lipids were characterized using transmission electron microscopy (TEM) analysis (FIGS. 10A-10G), dynamic light scattering (DLS) and zeta potential measurements. Table 1 represents the measured hydrodynamic diameter (Z-ave; d.nm), polydispersity index (PDI) and zeta potential (mV) of various LNPs. The resultant LNPs were spherical and uniformly distributed with a hydrodynamic diameter size of ˜50-260 nm, depending on the ionizable lipid used. Additionally, LNP surface potentials were negative.
In addition, DSL1-3 LNPs comprising different amounts of PEG (1.5 mol % or 2.5 mol %) were compared for bio-distribution. Mice treated and sacrificed; organs prepared for luciferase expression analysis as detailed above. […] Next, as shown in FIGS. 11M-11P, mRNA-LNPs composed of DSL1-4, 1-5, 2-2 or 2-50 lipids were compared to DSPC or DOPE as co-lipids. […] Tables 2-5 detail the physio-chemical properties of LNPs made of either DOPE or DSPC (the measured hydrodynamic diameter (Z-ave; d.nm), polydispersity index (PDI)).

luciferase expression [2] = experiment: In-vivo delivery of mRNA encoding luciferase using LNPs (IVIS of organs); parameters: species or system Mice; conditions: for bio-distribution of LNPs (luciferase expression by IVIS): mLUC-LNPs IV 0.5 mg/kg, 7 hr post administration, lung, liver, spleen, kidney; for luciferase activity of LNPs with DOPE as co-lipid compared to DSPC containing LNPs: mRNA-LNPs in mice; for bio-distribution on increasing ionizable lipid mole ratio (40% vs 30%): mRNA-LNPs IV
[3] = tested on: CD11c positive splenic dendritic cells; experiment: mCRE-LNPs in Ai9 mice, FACS for tdTomato expression; format: in vivo; conditions: mCRE-LNPs IV 0.5 mg/kg, 72 hr post administration
Description: (§1) Ai9 mice that express robust tdTomato fluorescence following cre-mediated recombination were injected intravenously with the various mCRE-LNPs at 0.5 mg/kg dose. Mice were sacrificed 72 hr post administration and peritoneal macrophages and spleenocytes were isolated and analyzed by FACS for tdTomato expression (FIGS. 13 and 14).

peritoneal macrophages = experiment: as above; format: in vivo; conditions: mCRE-LNPs IV 0.5 mg/kg, 72 hr post administration
Description: as §1

mice = experiment: In vivo safety analysis of mRNA-LNPs (serum liver enzymes); conditions: mRNA-LNPs IV; serum after 2 hr and 24 hr; compared to untreated mice
Description: After 2 hr and 24 hr blood was collected and serum samples were analyzed for levels of the liver enzymes alkaline phosphatase (Alk Phos), serum glutamic-oxaloacetic transaminase (SGOT) or serum glutamic pyruvic transaminase (SGPT).
Safety is an important limitation for clinical development of LNPs. Therefore, mRNA-LNPs system made of DSL2-50 and DSL1-3 lipids were tested and evaluated for the toxicity in mice.

[4] = Stability of mRNA-LNPs stored at 2-8° C. (size, PDI); format: physicochemical
luciferase expression [5] = experiment: Luciferase expression in mouse organs after storage of mRNA-LNPs (IVIS); format: in vivo, mice; conditions: mLuc LNPs stored 210 days at 2-8° C.
[6] = tested on: Luciferase and mCherry expression; experiment: Delivery of two types of mRNA encapsulated in a single LNP (IVIS of livers); format: in vivo; conditions: mice livers; compared to SM102-LNPs
SARS-CoV-2 = conditions: IM day 0 and booster day 21, serum 3 weeks after booster; BALB/c and C57BL6 mice
Description: To evaluate the efficiency of our LNP system for vaccine delivery, mRNA against human Fc conjugated RBD (RBD-hFc mRNA) was chosen. LNPs encapsulated RBD-mRNA administered IM in to BALB/c mice (FIG. 19) and C57BL6 mice (FIG. 20) on day ‘0’ and a booster dose on day ‘21’. Serum was collected on day ‘21’ (pre boost) and 3 weeks after the booster dose (post boost) and analyzed for humoral response. […] The cellular response (SARS-CoV-2 specific T-cell response) was measured by ELISPOT assay for IFN-γ response.

tdTomato expression = experiment: Biodistribution of DSL1-2 LNPs compared to Dlin-MC3-DMA LNPs (IVIS of spleen and liver); format: in vivo, Ai9 mice; conditions: mCRE-LNPs IV 0.5 mg/kg, 72 hr post administration
Description: Ai9 mice that express robust tdTomato fluorescence following cre-mediated recombination were injected intravenously with either Dlin-MC3-DMA or DSL1-2 mCRE-LNPs at 0.5 mg/kg dose. Mice were sacrificed 72 hr post administration followed by spleen and liver isolation and analyzed by IVIS for tdTomato expression.

[7] = mRNA LNPs: ionizable lipid, DSPC, Cholesterol, DMG-PEG 30:18:49.5:2.5 mole ratio

SMILES	PDI (polydispersity index) [1, 7]	Z-ave (hydrodynamic diameter) [1, 7] [nm·days]	Zeta (zeta potential) [1, 7] [mV]	bio-distribution of LNPs (luciferase expression by IVIS) (luciferase expression [2])	also measured
CCCCC/C=C\C/C=C\CCCCCCCCN(CCO)CCCCCCCCCCOC(=O)CCCCCCCCCN(CCO)CCCCCCCC/C=C\C/C=C\CCCCC [DSL1-1]	0.23	187.3	−6.37	distributed to both liver and spleen	uptake by CD11c positive splenic dendritic cells (tdTomato expression) [3]: ~3%; peritoneal macrophages expressing tdTomato (peritoneal macrophages): ~60%
CCCCC/C=C\C/C=C\CCCCCCCCN(CCO)CCCCCCCCCCOC(=O)CCCCCCCCCN(CCO)CCCCCCCCCCCC [DSL1-2]	0.17	197.2	−7.52	–	uptake by CD11c positive splenic dendritic cells (tdTomato expression) [3]: ~12%; peritoneal macrophages expressing tdTomato (peritoneal macrophages): about 90%
CCCCC/C=C\C/C=C\CCCCCCCCN(CCO)CCCCCCCCCCCOC(=O)CCCCCCCCCN(O)CCCCCCCCCCCC [DSL1-3]	0.17	164.8	−3.90	preferentially taken up by spleen	LNP distribution and expression, 1.5 mol % vs 2.5 mol % PEG (luciferase expression [2]; mLUC-LNPs IV, two formulations compared): no significant different observed; uptake by CD11c positive splenic dendritic cells (tdTomato expression) [3]: ~18%; peritoneal macrophages expressing tdTomato (peritoneal macrophages): ~20%; toxicity (levels of liver enzymes Alk Phos, SGOT, SGPT) (mice): not toxic
CCCCCCCCCCCCN(CCO)CCCCCCCCCCOC(=O)CCCCCCCCCN(CCO)CCCCCCCCCCCC [DSL1-4]	0.13	188.7	−1.43	preferentially taken up by spleen	PDI ([1]; LNPs with DOPE as co-lipid): 0.1; Z-ave (hydrodynamic diameter) ([1]; LNPs with DOPE as co-lipid): 92.3 nm·days; PDI ([1]; LNPs with DSPC as co-lipid): 0.15; Z-ave (hydrodynamic diameter) ([1]; LNPs with DSPC as co-lipid): 190.9 nm·days; luciferase activity of LNPs with DOPE as co-lipid compared to DSPC containing LNPs (luciferase expression [2]; IVIS): loses its luciferase activity
CCCCCCCCCCCCN(CCO)CCCCCCCCCC(=O)OCCOC(=O)CCCCCCCCCN(CCO)CCCCCCCCCCCC [DSL1-5]	–	–	–	preferentially taken up by spleen	bio-distribution on increasing ionizable lipid mole ratio (40% vs 30%) (luciferase expression [2]): altering the bio-distribution from the spleen to the liver
CCCCC/C=C\C/C=C\CCCCCCCCN(CCO)CCCCCCCCCC(=O)ON(CCCCCCCCCCCC)CCCCCCCCCCCC [DSL2-1]	0.24	49.2	−6.97	mostly taken-up by the liver	–
CCCCCCCCCCCCN(CCO)CCCCCCCCCC(=O)ON(CCCCCCCCCCCC)CCCCCCCCCCCC [DSL2-2]	0.23	50.8	−5.31	mostly taken-up by the liver	Z-ave (hydrodynamic diameter) ([1]; LNPs with DOPE as co-lipid): 72.5 nm·days and 88.5 nm·days; Z-ave (hydrodynamic diameter) ([1]; LNPs with DSPC as co-lipid): 50.8 nm·days and 80.3 nm·days; luciferase activity of LNPs with DOPE as co-lipid compared to DSPC containing LNPs (luciferase expression [2]; IVIS): enhanced luciferase activity observed in the liver
CCCCCCN(CCCCCC)OC(=O)CCCCCCCCCN(CCO)CCCCCCCCCC(=O)ON(CCCCCC)CCCCCC [DSL2-49]	0.07	63.9	−5.65	–	–
CCCCCCN(CCCCCC)CCOC(=O)CCCCCCCCCN(CCO)CCCCCCCCCC(=O)OCCN(CCCCCC)CCCCCC [DSL2-50]	0.04	80.3	−2.68	–	bio-distribution on increasing ionizable lipid mole ratio (40% vs 30%) (luciferase expression [2]): no significant changes in bio-distribution; luciferase activity of LNPs with DOPE as co-lipid compared to DSPC containing LNPs (luciferase expression [2]; IVIS): enhanced luciferase activity observed in the liver; LNP bio-distribution, intramuscular (IM) administration (luciferase expression [2]; mRNA-LNPs, IVIS): also reaching the liver apart from the injection site of the muscle; LNP bio-distribution, intravenous (IV) administration (luciferase expression [2]; mRNA-LNPs, IVIS): distributing to the liver; time over which LNPs are stable ([4]; mCherry LNPs stored at 2-8° C.): ≥ 3 months; size of the LNPs compared to freshly prepared LNPs ([4]; mCherry LNPs, after 3 months at 2-8° C.): slightly increased; time over which LNPs are stable ([4]; mLuc LNPs stored at 2-8° C.): ≥ 7 months; size and distribution of the LNPs compared to freshly prepared LNPs ([4]; mLuc LNPs, 210 days (7 months) at 2-8° C.): did not change; luciferase activity in the liver after storage (luciferase expression [5]): retain its luciferase activity in the liver; toxicity (levels of liver enzymes Alk Phos, SGOT, SGPT) (mice): not toxic; amount of Luciferase and mCherry expression [6]: high; post boost antibody response against SARS-CoV-2 (SARS-CoV-2): robust antibody response
CCCCC/C=C\C/C=C\CCCCCCCCN(CCO)CCCCCCCCCCOC(=O)CCCCCCCCCN(CCO)CCCCCCCCCC(=O)OCCCCCCCCCCN(CCO)CCCCCCCC/C=C\C/C=C\CCCCC [DSL3c-1]	0.45	261.9	−2.68	distributed to both liver and spleen	–
CCCCCCCCCCCCN(CCCCCCCCCCCC)CC(=O)ON(CCCCCCCCCCCC)CCCCCCCCCCCC [DSL4-2]	0.64	72.4	−5.00	no effect	–
CCCCC/C=C\C/C=C\CCCCCCCCC(CCCCCCCC/C=C\C/C=C\CCCCC)OC(=O)CCCN(C)C [Dlin-MC3-DMA]	–	–	–	–	organ of accumulation (tdTomato expression, IVIS) (tdTomato expression): accumulated in the liver
